# Measured values from patent EP1714978A1, “Peptides useful for diagnosis and therapy of tumors” (Deutsches Krebsforschungszentrum Stiftung des öffentlichen …, priority 2005, dated 2006).
# Experiments:
# [1] = system: various tumor cell lines; test: Competition of ^125I-labelled FROP-1 uptake by unlabelled FROP-1, various tumor cell lines; type: binding; details: in the presence of 10^-4 unlabelled FROP-1 as a competitor, 1 hour
# Method: (§1) • (A) Mice: Female 6-week-old BALB/c nu/nu mice were obtained from Charles River WIGA (Sulzfeld, Germany) and housed in VentiRacks. For inoculation of the tumors in nude mice a Matrigel-matrix/cell suspension (5×10^6 cells) was injected subcutaneously into the anterior region of the mouse trunk. Tumors were grown up to a size of approximately 1.0 cm^3. All animals were cared for according to the German animal guidelines. • (B) Peptide synthesis and labeling: The FROP-1-Peptide (EDYELMDLLAYL) was obtained by solid-phase peptide synthesis using Fmoc-chemistry. The radiolabeling was achieved by iodination using the chloramine-T method (33). […] The solution was centrifuged 5 min at 13,000 rpm and the cleared lysate was analyzed by HPLC. • (D) In vitro binding assay: 300,000 cells were seeded into 6-well plates and cultivated for 24 hours. […] Radioactivity was determined with a gamma counter and calculated as percent applied dose per 10^6 cells. […] The organs were removed, weighed and the radioactivity was determined using an automated NaI(Tl) well counter (CobraII, Canberra Packard, Meriden, USA). The percentage of injected dose per gram of tissue was calculated.
# (§2) 2 x 10^5 cells of various tumor cell lines were seeded into 6-well plates. […] The radioactivity of lysed cells was determined with a gamma counter. […]
# [2] = system: DU-145 (prostate carcinoma cell lines); test: In vitro binding/uptake of ^125I-labelled FROP-1 by DU-145 cells; details: ^125I-labelled FROP-1, about 1 x 10^6 cpm per well, 1 hour, RPMI 1640 without FCS and BSA
# Method: as §1, §2
# [3] = system: MCF-7 cells (mamma carcinoma cell line); test: In vitro binding/uptake of ^125I-labelled FROP-1 by MCF-7 cells; details: ^125I-labelled FROP-1, about 1 x 10^6 cpm per well, 1 hour, RPMI 1640 without FCS and BSA
# Method: as §1, §2
# [4] = system: PC-3 (prostate carcinoma cell lines); test: In vitro binding/uptake of ^125I-labelled FROP-1 by PC-3 cells; details: ^125I-labelled FROP-1, about 1 x 10^6 cpm per well, 1 hour, RPMI 1640 without FCS and BSA
# Method: as §1, §2
# [5] = system: FRO82-2 tumor; test: Organ distribution in tumor-bearing nude mice; type: in vivo, Balb/c nu/nu mice; details: summary statement; ^131I-FROP-1 i.v., values only in Figure 6
# Method: as §1, with “(33). The labeled peptide was purified by HPLC on a LiChrosorb RP-select B 5 µm, 250 ×x 4 mm column (Merck, Darmstadt, Germany) using TRIS/phosphate and methanol as eluents.” for “(33).”, “calculated. […]” for “calculated.”
# [6] = system: FRO82-2 cells (follicular thyroid cancer cell line); test: In vitro binding/uptake of ^125I-labelled FROP-1 by FRO82-2 cells; set-up: species or system human; details: ^125I-labelled FROP-1, about 1 x 10^6 cpm per well, 1 hour, RPMI 1640 without FCS and BSA
# Method: as §1, §2
# [7] = system: HeLa cells (cervix carcinoma cell line); test: In vitro binding/uptake of ^125I-labelled FROP-1 by HeLa cells; details: ^125I-labelled FROP-1, about 1 x 10^6 cpm per well, 1 hour, RPMI 1640 without FCS and BSA
# Method: as §1, §2
substance,measurement,setting,value
"FROP-1: novel 12 amino acid peptide from phage display, aa sequence EDYELMDLLAYL",binding can be competed,[1],95%
same,binding of FROP-1 to DU-145,[2],efficient binding
same,binding of FROP-1 to MCF-7 cells,[3],efficient binding
same,binding of FROP-1 to PC-3,[4],efficient binding
same,accumulation in tumors in vivo,[5],accumulates in vivo at/in tumors
same,binding of FROP-1 to FRO82-2 cells,[6],efficient binding
same,binding of FROP-1 to HeLa cells,[7],efficient binding
